Consider 9 molecules from US12692259B2, “Morpholine-containing and piperazine-containing CXCR4 modulators and uses related thereto” (Emory University, priority 2021, dated 2026).

Structures are written as SMILES. pIC50: −log10 of the molar value.

In one data set the target is T1, CYP3A4 (Homo sapiens, UniProt P08684).
T1 construct: purchased Corning; host or cells: insect cells (microsomes)
The data set can be described thus: Fluorometric CYP450 inhibition assay, CYP3A4. In kind it is in vitro ADME. Particulars: read-out: CYP450 IC50 (μM) 3A4. The protocol: The CYP450 inhibition assays utilized microsomes from insect cells expressing human recombinant individual cDNA-expressed CYP isoforms 3A4 and 2D6, as well as the fluorogenic probe that produces fluorescent metabolite. Standard inhibitors were co-incubated with fluorogenic substrates and their inhibitory potential (IC50) was determined. Assay conditions in terms of CYP450 protein concentration and time of incubation were standardized, enzyme kinetics parameters of each fluorescent probe substrate were estimated and IC50 values of inhibitors were determined and validated on different days to check reproducibility.
A 100 mM sodium phosphate buffer was prepared and adjusted to pH 7.4. In a separate falcon tube, a 2× enzyme/substrate (E/S) solution was prepared in phosphate buffer. The final concentration of CYP2D6 (CORNING®) and 7-amido-4-methyl coumaric acid (AMMC) was 10 nM and 4 μM, and CYP3A4 (CORNING®) and 7-benzyloxy-4-(trifluoromethyl) coumarin (BFC) was 20 nM and 40 μM, respectively. In a separate falcon tube, a 2×NADPH regenerating system (NRS) was prepared in phosphate buffer.
Both enzymatic assays were conducted in a 96-well microtiter plate (Black, CORNING® COSTAR®) with a final volume of 100 μL. Preparation of the plate began with the addition of 74 μL of the E/S in the first well, and 50 μL to all subsequent wells (from 2-11). […] A 1:3 serial dilution of the test compound was conducted by removing 25 μL from the first well and diluting it with the second and so forth until the tenth row. Final concentrations yielded a range from 200 μM-0.01 μM. Well no. 11 contained no inhibitor, and well no. 12 contained no enzyme. Both were used as controls for background fluorescence. The plate was incubated for 30 min at 37° C. After incubation, the reaction was initiated by the addition of 50 μL of the 2×NRS to each well.
Immediately (within 1 min) the fluorescence was measured using a microplate reader (BIOTEK® Synergy Neo2). […] Data was exported and analyzed using Graph Pad Prism 7. […] The IC50 value was derived after the data was fitted on a 10-point curve using a four-parameter logistic regression model.

Another data set in a line: in vitro. Conditions: mouse, pH 7.4; for Liver Microsomes % rem. @ 10 min. M: 3 µM; for half-life at 3 µM: microsomes. The protocol: Metabolic stability assay was performed at Emory University's Department of Chemistry or by Bristol Myers Squibb. The method used by Emory University's Department of Chemistry is described below.
Each method was developed in the presence of an internal standard (ISTD) d5-7-ethoxy coumarin. The column temperature was maintained at 40° C. for most of the samples otherwise noted. The detection was operated in the Agilent JetStream electrospray positive ionization using multiple reaction monitoring mode (MRM).
Other MS conditions were as follows: dwell time 100 ms; gas flow 10 L/min; nebulizer pressure 45 psi; delta EMV 200 V; fragmentor voltage and collision energy for individual compounds vary.
Test compounds were dissolved in 100% DMSO or 100% MeOH to make 10 mM stock solutions. Verapamil (Sigma Aldrich) aided as a positive control and was dissolved in 100% DMSO to make 10 mM stock solutions. The 10 mM stock solution of test and control compounds were further diluted in potassium phosphate buffer (100 mM, pH 7.4) to 500 μM to ensure the organic solvent content was <0.2%. Human liver microsomes (HLMs) were purchased from Xenotech at 20 mg/mL. NADPH (Sigma Aldrich) 10 mM stocks were prepared in deionized water.
The HLM assay was prepared in a 1.5 mL Eppendorf tube with a final volume of 1100 μL for duplicate runs. Each reaction contained phosphate buffer (928.4 μL), liver microsomes (55 μL), and test compound resulting in a final concentration of 3 μM (6.6 μL of 500 μM). The reaction was initiated with 110 μL of 10 mM NADPH. […] Before centrifugation each of the aliquoted tubes were vortexed to make sure compounds were in the solution. The aliquots were centrifuged at 12,000 g for 5 min and the supernatant removed and placed in an LC-MS vial. Each time point was assessed using LC-MS and the area, based on the extracted ion, was integrated with respect to the ISTD. […] A no-NADPH negative control with test or control compound was performed in a single run (150 μL) at the longest time point. Controls were processed and analyzed like the test compounds. Each time point was run in duplicates followed by in-between blank washes to avoid the carryover and to equilibrate the column.
The MLM assay was performed using the same procedures as those described above for the HLM assay.

For the next data set, the target named is CXCR4 (Homo sapiens, UniProt P61073). The data set can be described thus: cAMP assay in CXCR4-CHO-Glo cells (GloSensor, forskolin + SDF-1α). In kind it is cell-based. Details: expressed in transfected cells. From the text: Materials, reagents, and instrument—Advanced DMEM (Gibco), trypsin EDTA (0.05%, phenol red), L-glutamine, HBSS buffer with and without Ca^2+/Mg^2+ (Gibco), antibiotic-antimycotic (Gibco), hygromycin B, and geneticin selective antibiotic (G418 sulfate) were purchased from Invitrogen. Forskolin (Tocris), SDF-1α (R&D Systems), HEPES (Sigma Aldrich), FBS (Atlanta Biologicals), D-luciferin (Gold Biotechnology), sterile 60 mm tissue culture dishes, and 96-well sterile tissue culture plates were purchased from Corning.
The assay targeted CXCR4 expressed in CHO-gloSensor cells. It monitored GPCR activation based on forskolin-stimulated cAMP production in cells. The assay used a genetically encoded biosensor with its cAMP binding domain fused to luciferase. Binding of cAMP to the cAMP binding domain changed the conformation of the biosensor, leading to the activation of luciferase. The intensity of the luciferase signal (light output) resulted from the oxidation of D-luciferin to oxyluciferin is proportional to the amount of cAMP produced in the cells.
The assay was performed in triplicate using live cells in 96-well tissue culture plates. Cells were pre-incubated in the dark at room temperature for one hour in the presence of D-luciferin. Bioluminescence was quantified before and after the agonist/antagonist addition. Stock solution of forskolin and SDF-1a, was prepared in Locke-Luc buffer. Stock solutions of the test compounds were prepared in DMSO (10 mM); they were diluted by Locke's buffer for use in the assay.
CHO-Glo cells, a cell line stably expressing the GloSensor cAMP biosensor (Promega), were transfected with cDNA encoding human CXCR4 in Pires-AcGFP1 (Clontech) and a stable cell line was isolated (CXCR4-CHO-Glo cells). The CXCR4-CHO-Glo cells were grown to confluency on 60 mm tissue culture dishes. After trypsinization, the cells were plated on 96-well plates and incubated overnight. The next day, culture media in each well was aspirated and replaced with 100 μL Locke's buffer containing 4 mM D-luciferin, followed by incubation in the dark for one hour. Before the addition of agonist/antagonist, each plate was read five times at 2 min intervals to obtain basal bioluminescence values from each well. The average of these five pre-readings was used to normalize each well's response to account for differences in GloSensor expression and cell density. After five pre-readings, cAMP formation was initiated with the addition of 50 μL solution of test compound (TC) in Locke Luc buffer containing forskoline and SDF-1α. […] Luminescence was measured immediately after the addition of the antagonist solution. The measurements were taken every two minutes for 30 minutes in kinetics mode after antagonist addition. IC50 values were calculated from the 4-parameter logistic equation using Prism GraphPad.

T1 sequence (P08684 whole entry): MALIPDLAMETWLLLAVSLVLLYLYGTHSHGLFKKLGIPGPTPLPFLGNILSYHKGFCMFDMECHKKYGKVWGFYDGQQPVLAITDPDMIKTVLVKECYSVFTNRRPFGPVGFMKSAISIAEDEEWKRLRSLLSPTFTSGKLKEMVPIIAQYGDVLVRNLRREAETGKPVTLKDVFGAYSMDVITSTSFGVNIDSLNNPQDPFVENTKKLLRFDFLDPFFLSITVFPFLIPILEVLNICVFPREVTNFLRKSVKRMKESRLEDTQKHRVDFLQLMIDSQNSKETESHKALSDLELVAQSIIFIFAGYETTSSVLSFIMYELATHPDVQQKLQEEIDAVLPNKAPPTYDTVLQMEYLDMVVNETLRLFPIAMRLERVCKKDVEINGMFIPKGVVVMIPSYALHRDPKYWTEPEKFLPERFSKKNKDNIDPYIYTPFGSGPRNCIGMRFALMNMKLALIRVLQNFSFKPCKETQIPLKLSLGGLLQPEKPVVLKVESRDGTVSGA
Chain of CXCR4 (P61073 whole entry): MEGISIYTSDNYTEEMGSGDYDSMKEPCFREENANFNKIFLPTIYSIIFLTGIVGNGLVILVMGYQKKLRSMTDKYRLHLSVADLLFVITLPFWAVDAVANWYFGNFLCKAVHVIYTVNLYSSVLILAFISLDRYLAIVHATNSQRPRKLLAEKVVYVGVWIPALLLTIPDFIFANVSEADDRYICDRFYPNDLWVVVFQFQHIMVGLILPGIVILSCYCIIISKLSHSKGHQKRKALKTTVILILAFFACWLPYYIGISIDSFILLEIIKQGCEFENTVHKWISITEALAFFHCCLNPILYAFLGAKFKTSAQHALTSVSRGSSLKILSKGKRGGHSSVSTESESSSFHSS

For the molecule `CN(C[C@H]1Cc2c(cccc2N2CC3COC2C3)CN1)[C@H]1CCCc2cccnc21` (stereo in doubt) [EMU-324, (S)—N—(((R)-5-((1S,4R)-2-oxa-6-azabicyclo[2.2.1]heptan-6-yl)-1,2,3,4-tetrahydroisoquinolin-3-yl)methyl)-N-methyl-5,6,7,8-tetrahydroquinolin-8-amine], the IC50 on CYP3A4 stood at 3.5 µM. The “Liver Microsomes % rem. @ 10 min. M” value in “in vitro” stood at 36.9%. On CXCR4, the pIC50 was 7.26.
Regarding `CN1CCN(c2cccc3c2C[C@@H](CN(C)[C@H]2CCCc4cccnc42)NC3)C(=O)C1` [EMU-251, 4-methyl-1-((S)-3-((methyl((S)-5,6,7,8-tetrahydroquinolin-8-yl)amino)methyl)-1,2,3,4-tetrahydroisoquinolin-5-yl)piperazin-2-one], at CYP3A4, the IC50 stood at 48.4 µM. For the same molecule, in “in vitro”, the half-life at 3 µM came to 126 min. Moreover, the pIC50 at CXCR4 is 6.61.
`CN(C[C@H]1Cc2c(cccc2N2CCNC(=O)C2)CN1)[C@H]1CCCc2cccnc21` [EMU-254, 4-((R)-3-((methyl((S)-5,6,7,8-tetrahydroquinolin-8-yl)amino)methyl)-1,2,3,4-tetrahydroisoquinolin-5-yl)piperazin-2-one]: the IC50 on CYP3A4 amounted to 14.3 µM. The same molecule had a half-life at 3 µM in the data set “in vitro” of 35 min. Also, the pIC50 on CXCR4 is 7.50.
In the same order, the values of `CN1CCN(c2cccc3c2C[C@H](CN(C)[C@H]2CCCc4cccnc42)NC3)CC1=O` [EMU-255, 1-methyl-4-((R)-3-((methyl((S)-5,6,7,8-tetrahydroquinolin-8-yl)amino)methyl)-1,2,3,4-tetrahydroisoquinolin-5-yl)piperazin-2-one] are 13.7 µM, 17 min and 7.16.
In the same order, the values of `CCOC(=O)N1CCN(c2cccc3c2C[C@H](CN(C)[C@H]2CCCc4cccnc42)NC3)CC1` [EMU-261, ethyl 4-((R)-3-((methyl((S)-5,6,7,8-tetrahydroquinolin-8-yl)amino)methyl)-1,2,3,4-tetrahydroisoquinolin-5-yl)piperazine-1-carboxylate] are 7.82 µM, 7.4 min and 8.43.
For the molecule `CC(=O)N1CCN(c2cccc3c2C[C@H](CN(C)[C@H]2CCCc4cccnc42)NC3)CC1` [EMU-262, 1-(4-((R)-3-((methyl((S)-5,6,7,8-tetrahydroquinolin-8-yl)amino)methyl)-1,2,3,4-tetrahydroisoquinolin-5-yl)piperazin-1-yl)ethan-1-one], on CYP3A4, the IC50 turned out to be 16.3 µM. The same molecule displayed a half-life at 3 µM in the data set “in vitro” of 5.5 min. Further, the pIC50 at CXCR4 is 7.84.
As to `CN(C[C@H]1Cc2c(cccc2N2CCN(S(C)(=O)=O)CC2)CN1)[C@H]1CCCc2cccnc21` [EMU-263, (S)—N-methyl-N—(((R)-5-(4-(methylsulfonyl)piperazin-1-yl)-1,2,3,4-tetrahydroisoquinolin-3-yl)methyl)-5,6,7,8-tetrahydroquinolin-8-amine], the IC50 on CYP3A4 amounted to 24.1 µM. Further, the half-life at 3 µM in the data set “in vitro” turned out to be 3 min. At CXCR4, the pIC50 is 7.32.
Take `CN1CCN(c2cccc3c2CC(CN(C)[C@H]2CCOc4cccnc42)NC3)CC1` (stereo partly drawn) [EMU-320, (4S)—N-methyl-N-((5-(4-methylpiperazin-1-yl)-1,2,3,4-tetrahydroisoquinolin-3-yl)methyl)-3,4-dihydro-2H-pyrano[3,2-b]pyridin-4-amine]: at CYP3A4, the IC50 stood at 3.2 µM. Also, the “Liver Microsomes % rem. @ 10 min. M” value in “in vitro” was determined as 91.6%. Moreover, at CXCR4, the pIC50 is 7.54.
In the same order, the values of `CN(C[C@H]1Cc2c(cccc2N2CCN3CCOC[C@H]3C2)CN1)[C@H]1CCCc2cccnc21` [EMU-343, (S)—N—(((R)-5-((R)-hexahydropyrazino[2,1-c][1,4]oxazin-8(1H)-yl)-1,2,3,4-tetrahydroisoquinolin-3-yl)methyl)-N-methyl-5,6,7,8-tetrahydroquinolin-8-amine] are more than 20 µM, 33.8% and 8.21.
